Drawing on US20250288658A1 (priority 2022, published 2025), this text covers IC50 for one compound.

The assay has as its system wild type EBOV. Conditions: 24 h.

Bridge positions count the residues as written; N and C are the ends. Square brackets hold non-standard residues; d marks the D form. Side chains are listed from the residue outwards. Peptide text beside a SMILES is read from it. * marks the point of attachment. ξ: configuration not given here. Acetyl(2-S-3ξ-cholesteryl) = CC(C)CCC[C@@H](C)[C@H]1CC[C@H]2[C@@H]3CC=C4CC(SCC(=O)*)CC[C@]4(C)[C@H]3CC[C@]12C; R8 = C=CCCCCCC[C@@](C)(N)C(=O)O; PEG4 = NCCOCCOCCOCCOCCC(=O)O; S5 = C=CCCC[C@](C)(N)C(=O)O

What is called IC50 is the point on the concentration scale where inhibition reaches its midpoint.

In the case of `CC[C@H](C)[C@H](NC(=O)[C@H](C)NC(=O)[C@H](CS)NC(=O)[C@H](CC(=O)O)NC(=O)[C@@H]1CCCN1C(=O)CNC(=O)[C@H](CC(C)C)NC(=O)[C@@H](NC(=O)[C@H](Cc1c[nH]cn1)NC(=O)[C@H](CS)NC(=O)[C@@H](NC(C)=O)[C@@H](C)O)[C@@H](C)CC)C(=O)N[C@@H](CCC(=O)O)C(=O)N1CCC[C@H]1C(=O)N[C@@H](Cc1c[nH]cn1)C(=O)N[C@@H](CC(=O)O)C(=O)N[C@@H](Cc1c[nH]c2ccccc12)C(=O)N[C@H](C(=O)N[C@]1(C)CCCCCCC=CCCC[C@@](C)(C(=O)N[C@@H](CCC(N)=O)C(=O)N[C@H](C(=O)N[C@H](C(=O)N[C@@H](Cc2c[nH]cn2)C(=O)N[C@@H](CC(=O)O)C(=O)N[C@@H](Cc2ccccc2)C(=O)N[C@H](C(=O)N[C@@H](CCCCNC(=O)CCOCCOCCOCCOCCNC(=O)CSC2CC[C@@]3(C)C(=CC[C@H]4[C@@H]5CC[C@H]([C@H](C)CCCC(C)C)[C@@]5(C)CC[C@@H]43)C2)C(N)=O)C(C)C)[C@@H](C)CC)[C@@H](C)CC)NC(=O)[C@H]([C@@H](C)CC)NC(=O)[C@H](CCCCN)NC(=O)[C@H](CC(=O)O)NC(=O)[C@H]([C@@H](C)O)NC(=O)[C@H]([C@@H](C)CC)NC(=O)[C@H](CC(N)=O)NC1=O)[C@@H](C)O` (stereo partly shown) [SEQ ID NO:22, TCHILGPDCAIEPHDWT8NITDKIXQIIHDFV*] (Ac-TCHILGPDCAIEPHDWT[R8]NITDKI[S5]QIIHDFVK([PEG4-Acetyl(2-S-3ξ-cholesteryl)])-NH2; staple 18-25), the IC50 was ~1500 nM.
